Measurements reported in patent US4677126A, “Oxa-fenchyl esters and amides of alpha-L-aspartyl-D-phenylglycine” (The Procter & Gamble Company, priority 1986, dated 1987).
Square brackets hold non-standard residues; d marks the D form. Peptide text beside a SMILES is read from it. Phg = N[C@H](C(=O)O)c1ccccc1

Assay: not given
Settings: most carbonated beverages, pH about 2.5 to about 4.8; cited from earlier work

Row | SMILES | hydrolytic stability in carbonated beverages
1 | COC(=O)[C@H](Cc1ccccc1)NC(=O)[C@@H](N)CC(=O)O [aspartame, alpha-L-aspartyl-L-phenylalanine methyl ester] (H-Asp-Phe-OMe) | hydrolytically unstable

Assay: not given
Settings: literature / prior patents; cited from earlier work

Row | SMILES | sweetness intensity, times that of sucrose | taste quality
2 | C[C@@H](NC(=O)[C@@H](N)CC(=O)O)C(=O)NC1C(C)(C)S(=O)(=O)C1(C)C | 1000 times that of sucrose | –
3 | C[C@@H](NC(=O)[C@@H](N)CC(=O)O)C(=O)NC1C(C)(C)SC1(C)C [2,2,4,4-tetramethylthietan-3-yl] | 2000 times that of sucrose | –
4 | CC1CCC(C)C1NC(=O)[C@@H](C)NC(=O)[C@@H](N)CC(=O)O (stereo partly drawn) [2,5 dimethylcyclopentyl] | 520 times that of sucrose | –
5 | CC1CCCC(C)C1NC(=O)[C@@H](C)NC(=O)[C@@H](N)CC(=O)O (stereo partly drawn) [2,6-dimethylcyclohexyl] | 600 times that of sucrose | –
6 | O=C1NS(=O)(=O)c2ccccc21 [Saccharin] | about 300 times that of sucrose | lingering bitter aftertaste
7 | COC(=O)[C@H](Cc1ccccc1)NC(=O)[C@@H](N)CC(=O)O [aspartame, alpha-L-aspartyl-L-phenylalanine methyl ester] (H-Asp-Phe-OMe) | 150-200 times that of sucrose | approaching that of sucrose
8 | C[C@@H](NC(=O)[C@@H](N)CC(=O)O)C(=O)NC(C1CC1)C1CC1 [dicyclopropylcarbinyl] | 1200 times that of sucrose | –
9 | CCOC(=O)C(NC(=O)[C@@H](N)CC(=O)O)C(=O)OC1C2(C)CCC(C2)C1(C)C (stereo partly drawn) [ethyl] | 4200-5400 times that of sucrose | –
10 | C[C@@H](NC(=O)[C@@H](N)CC(=O)O)C(=O)NC1C2(C)CCC(C2)C1(C)C (stereo partly drawn) [fenchyl] | 320 times that of sucrose | –
11 | COC(=O)[C@@H](Cc1ccccc1)NC(=O)[C@@H](N)CC(=O)O [methyl ester of L-aspartyl-D-phenylalanine] (H-Asp-[dF]-OMe) | – | bitter
12 | COC(=O)[C@@H](NC(=O)[C@@H](N)CC(=O)O)c1ccccc1 [methyl ester of L-aspartyl-L-phenylglycine] (H-Asp-[Phg]-OMe) | 100-1000 times that of sucrose | quite sweet
13 | COC(=O)C(NC(=O)[C@@H](N)CC(=O)O)C(=O)OC1C2(C)CCC(C2)C1(C)C (stereo partly drawn) [methyl] | 22,200-33,200 times that of sucrose | –

Assay: Sweetness intensity relative to sucrose, taste panel
Format: in vivo, human
Settings: based on informal panel testing
Description: The sweetness intensity of the esters and amides of the present invention relative to sucrose can be determined according to the following procedure:
Male subjects are chosen at random from a group of about 20 persons who have previously been selected on the basis of proven tasting acuity, i.e., persons who could easily recognize the four basic tastes (sweet, sour, bitter and salty) and who are adept at quantifying their own physiological response numerically. The subjects are asked to taste and expectorate about 10 ml of a test sample (temperature of about 22° C.) having dissolved therein the ester or amide. […] Sweetness intensity of the test sample is recorded by the subject making a mark on the linear scale at a point they consider equal in sweetness among the standard samples; interpolation between standards is encouraged. After completion of the panel, a five point numeric scale is superimposed on the linear scales to obtain numerical data; data is averaged and recorded to the nearest 0.25 unit. Equivalent sucrose sweetness is determined by referring to graphs of (w/v) sucrose concentration in the standard samples versus a linear numeric scale.
Sweetness intensity is calculated by dividing the concentration (w/v) of perceived sweetness by the concentration (w/v) of the ester or amide required to produce that sweetness. […]

Row | SMILES | Sweetness (× Sucrose)
14 | CC12CCC(O1)C(C)(C)C2OC(=O)[C@H](NC(=O)[C@@H](N)CC(=O)O)c1ccccc1 (stereo partly drawn) [Example 2, alpha-L-Aspartyl-D-phenylglycine-alpha-7-oxa-fenchyl ester] | 1000

Same assay, conditions: based on informal panel testing; isolated diastereomer

Row | SMILES | Sweetness intensity
15 | CC12CCC(O1)C(C)(C)C2OC(=O)[C@H](NC(=O)[C@@H](N)CC(=O)O)c1ccccc1 (stereo partly drawn) [Example 2, alpha-L-Aspartyl-D-phenylglycine-alpha-7-oxa-fenchyl ester] | approximately 1000 X
